In US9925204B2, “Anti-inflammatory compounds in combination with hydrogen for the treatment of inflammation” (priority 2012, dated 2018):
Like-named read-outs stand apart in the source and are kept apart here.

How the values were obtained:
[1] = test system: mouse macrophage cell line (RAW264.7); assay: TNF-α production from LPS-stimulated mouse macrophages (Example 3); format: cell-based; settings: LPS-stimulated RAW264.7, 24 hours, ELISA; drug 10-1000 nM, with or without H2
Description: The following is an in vitro experiment to test the effects of hydrogen on the Celecoxib- or Ibuprofen-mediated anti-inflammatory activities, and the results are shown in FIGS. 10 and 11.
The mouse macrophage cell line (RAW264.7) was seeded at a density of 1.0×10^5 cells/well in 96-well culture plates in Minimum Essential Medium Alpha ( ? -MEM, Sigma) supplemented with penicillin G solution (100 U/ml, GIBCO; Invitrogen, Buffalo, N.Y.), streptomycin ([…], GIBCO; Invitrogen), and gentamicin (50 ? g/ml, GIBCO; Invitrogen) containing 10% FBS in the presence or absence of H2 (300 nM/ml) for 30 min. Then the cells were exposed to LPS (0.1 mg/ml, Invivogen, San Diego, Calif.), with or without a variety of concentrations of Celecoxib or Ibuprofen (10-1000 nM). After culture of the RAW264.7 cells for 24 hours in a CO2 incubator (37° C.), the culture supernatant was harvested and subjected to TNF-α ELISA (R&D Systems).

[2] = test system: GAD; settings: cited from earlier work
[3] = test system: tonic extensor seizures in mice; settings: cited from earlier work; for Effect # Protected/# Tested / Ataxia # Ataxia/# Tested: mice, intravenous, 120 min after dose; for Effect # Protected/# Tested: electroshock
[4] = test system: mouse foot pad inflammation induced by Freund's complete adjuvant (FCA); assay: Freund's complete adjuvant induced foot pad inflammation in mice (Example 1); format: in vivo
Description: Mice were placed in the following administration groups, and administration occurred daily:
1) Control (no treatment) (n=4)
2) Placebo (PBS, i.p.) inoculation—(i.e. CFA only) (n=4)
3) H2 enriched PBS inoculation (i.e. CFA+H2) (n=4)
4) Lactulose inoculation at 0.5 mL/mouse (i.e. CFA+Lact) (n=4)
5) LYRICA® (i.e. CFA+Lyr) (n=5)
6) LYRICA®+H2 enriched PBS (i.e. CFA+Lyr+H2) (n=5)
7) LYRICA®+Lactulose in PBS (i.e. CFA+Lact+H2) (n=4)
CFA was injected into the mice in groups 2 through 7 above. Inflammation was induced in the mice by injection of Freund's complete adjuvant (FCA), 25 μL/foot, on day 0 as shown in FIG. 1A. […] These measurements included thickness of foot pad (level of inflammation), amount of H2 in abdominal cavity, amount of nerve growth factor (NGF) (pain marker) in foot pad, amount of Substance P (pain marker) in foot pad, and amount of IL-1β in foot pad (level of inflammation).

[5] = H2 concentration in ascites fluid after ingestion (Example 2); format: in vivo, mouse; settings: for H2 concentration in ascites fluid after ingestion of sugar solution: mouse abdominal cavity, ranking among sugars tested
Description: Lactose, glucose, galactose, fructose, mannitol, inulin, Splenda® (McNeil Nutritionals (sucralose)), Equal® (Merisant (aspartame, dextrose, and maltodextrin)), and lactulose were tested along with a control.
After 30 minutes, H2-enriched water provided approximately 40 μM H2 concentration but dropped off to approximately 15 μM after 4 hours. At 4 hours, lactulose provided over 20 μM H2 concentration.

[6] = test system: Freund's complete adjuvant-induced hind paw inflammation in mice; assay: Freund's complete adjuvant-induced hind paw inflammation in mice (Example 4); format: in vivo, mice (BALB/c); settings: day 7, versus mice without lactulose
Description: The following experiment was performed to test the effects of Lactulose combined with Celecoxib or Ibuprofen on Freund's complete adjuvant-induced hind paw inflammation in mice, with the results shown in FIGS. 12-15.
For induction of hindpaw inflammation, mice (BALB/c; 8 w old male n=6/group) received i.pl. injection of 25 μl of complete Freund's adjuvant (CFA, diluted 1:1 with PBS, 2 mg/ml; Mycobacterium tuberculosis; Difco Laboratories, Detroit, Mich.). Lactulose (10% water) or control water alone was administered once in a day for 7 days (500 μl/day) by oral gavage using a 20-G bulb-tipped gastric gavage needle (P.O.). Celecoxib (Toronto Research Chemicals) and Ibuprofen (Enzo Life Sciences) dissolved in PBS was applied to mice once a day via intra-peritoneal (i.p.) injection (10 mg/kg/day, respectively) for 7 days. The thickness of the foot pad was measured using a digital microcaliper as mice were sacrificed on 7 day. Surgically removed hind paw tissue was homogenized in EIA-Buffer (Cayman) and subjected to mouse NGF ELISA (Millipore), PGE2 EIA (Cayman), or TNF-α ELISA (R&D systems).

Compound: CC(C)Cc1ccc(C(C)C(=O)O)cc1 (racemic) [ibuprofen, (RS)-2-(4-(2-methylpropyl)phenyl)propanoic acid]
- TNF-α production [1]: TNF-α suppression

Compound: C[C@H](N)CCC(=O)O [H(S)]
- Activation of GAD by GABA analogs expressed in % ([2]; 0.25 mM): 100%
- Activation of GAD by GABA analogs expressed in % ([2]; 1.0 mM): 100%
- Activation of GAD by GABA analogs expressed in % ([2]; 2.5 mM): 100%

Compound: NCC1(CC(=O)O)CCCCC1 [GABAPENTIN, gabapentin]
- Activation of GAD by GABA analogs expressed in % ([2]; 0.25 mM): 105%
- Activation of GAD by GABA analogs expressed in % ([2]; 1.0 mM): 145%
- Activation of GAD by GABA analogs expressed in % ([2]; 2.5 mM): 178%

Compound: CC(C)(C)C(CN)CC(=O)O (stereo not drawn) [t-C4H9]
- Effect # Protected/# Tested ([3]; 10 mg/kg): 2/10
- Ataxia # Ataxia/# Tested ([3]; 10 mg/kg): 0/10
- Effect # Protected/# Tested ([3]; 30 mg/kg): 2/10
- Ataxia # Ataxia/# Tested ([3]; 30 mg/kg): 0/10
- Effect # Protected/# Tested ([3]; 100 mg/kg): 5/10
- Ataxia # Ataxia/# Tested ([3]; 100 mg/kg): 0/10

Compound: CC(C)C[C@H](CN)CC(=O)O [LYRICA®, (S)-(+)-4-amino-3-(2-methylpropyl)butanoic acid]
- IL-1β in tissue (level of inflammation) ([4]; CFA-injected mice): slightly reduced levels of inflammation compared to placebo group 2
- Substance P (pain marker) in tissue ([4]; CFA-injected mice): reduction in the marker compared to the placebo group 2

Compound: CC(C)(CN)CC(=O)O [(CH3)2]
- Effect # Protected/# Tested ([3]; 30 mg/kg): 4/5
- Ataxia # Ataxia/# Tested ([3]; 30 mg/kg): 0/5
- Effect # Protected/# Tested ([3]; 100 mg/kg): 4/5
- Ataxia # Ataxia/# Tested ([3]; 100 mg/kg): 0/5

Compound: CC(CN)CC(=O)O (racemic) [(R,S)—CH3]
- Effect # Protected/# Tested ([3]; 10 mg/kg): 0/5
- Ataxia # Ataxia/# Tested ([3]; 10 mg/kg): 0/5
- Effect # Protected/# Tested ([3]; 30 mg/kg): 4/5
- Ataxia # Ataxia/# Tested ([3]; 30 mg/kg): 0/5
- Effect # Protected/# Tested ([3]; 100 mg/kg): 3/5
- Ataxia # Ataxia/# Tested ([3]; 100 mg/kg): 0/5

Compound: CC(C)CC(CN)CC(=O)O (racemic) [(R,S)—i-C4H9, H, 4-amino-3-(2-methylpropyl)butanoic acid]
- potency when tested in vivo ([3]; compared with the other analogs): more potent than the other analogs
- activating GAD in vitro ([2]; compared with the other analogs tested): least effective one of the analogs tested

Compound: CC(C)CC(CN)CC(=O)O (stereo not drawn) [i-C4H9, 4-amino-3-(2-methylpropyl)butanoic acid]
- Effect # Protected/# Tested ([3]; 0.3 mg/kg): 1/10
- Effect # Protected/# Tested ([3]; 0.8 mg/kg): 3/10
- Effect # Protected/# Tested ([3]; 2.0 mg/kg): 5/10
- Effect # Protected/# Tested ([3]; 5.5 mg/kg): 7/10

Compound: inulin
- H2 concentration in ascites fluid after ingestion of sugar solution [5]: next highest concentration

Compound: CCC(C)C(CN)CC(=O)O (stereo not drawn) [s-C4H9]
- Effect # Protected/# Tested ([3]; 3 mg/kg): 2/10
- Ataxia # Ataxia/# Tested ([3]; 3 mg/kg): 0/10
- Effect # Protected/# Tested ([3]; 10 mg/kg): 3/10
- Ataxia # Ataxia/# Tested ([3]; 10 mg/kg): 0/10
- Effect # Protected/# Tested ([3]; 30 mg/kg): 2/10
- Ataxia # Ataxia/# Tested ([3]; 30 mg/kg): 0/10

Compound: OC[C@H]1O[C@@H](O[C@@H]2[C@@H](CO)OC(O)(CO)[C@H]2O)[C@H](O)[C@@H](O)[C@H]1O (mixture of isomers) [Lactulose, lactulose]
- foot pad swelling ([6]; lactulose 10% P.O. 500 μl/day, drug 10 mg/kg/day i.p.): reduced
- NGF in inflamed foot pads [6]: reduced
- amount of PGE2 in inflamed foot pads [6]: reduced
- amount of TNF-α in inflamed foot pads [6]: greatly reduced
- H2 concentration in ascites fluid ([5]; after 4 hours): over 20 μM
- H2 concentration in ascites fluid after ingestion of sugar solution [5]: highest concentration of H2 in ascites fluid
- H2 concentration in the abdomen ([4]; day 8, CFA-injected mice): highest

Compound: CC(N)CCC(=O)O (racemic) [H(R,S)]
- Activation of GAD by GABA analogs expressed in % ([2]; 0.25 mM): 104%
- Activation of GAD by GABA analogs expressed in % ([2]; 1.0 mM): 111%
- Activation of GAD by GABA analogs expressed in % ([2]; 2.5 mM): 140%

Compound: CC(C)(C)CC(CN)CC(=O)O (stereo not drawn) [neo-C5H11]
- Effect # Protected/# Tested ([3]; 10 mg/kg): 2/10
- Ataxia # Ataxia/# Tested ([3]; 10 mg/kg): 0/10
- Effect # Protected/# Tested ([3]; 30 mg/kg): 4/10
- Ataxia # Ataxia/# Tested ([3]; 30 mg/kg): 0/10
- Effect # Protected/# Tested ([3]; 100 mg/kg): 4/10
- Ataxia # Ataxia/# Tested ([3]; 100 mg/kg): 0/10

Compound: C[C@@H](N)CCC(=O)O [H(R)]
- Activation of GAD by GABA analogs expressed in % ([2]; 0.25 mM): 108%
- Activation of GAD by GABA analogs expressed in % ([2]; 1.0 mM): 125%
- Activation of GAD by GABA analogs expressed in % ([2]; 2.5 mM): 173%

Compound: CCCC(CCC)C(=O)[O-].[Na+] [Sodium Valproate]
- Activation of GAD by GABA analogs expressed in % ([2]; 0.05 mM): 105%
- Activation of GAD by GABA analogs expressed in % ([2]; 0.1 mM): 115%
- Activation of GAD by GABA analogs expressed in % ([2]; 0.25 mM): 119%
- Activation of GAD by glutamate analogs expressed in % ([2]; 0.25 mM): 119%
- Activation of GAD by GABA analogs expressed in % ([2]; 0.5 mM): 124%
- Activation of GAD by GABA analogs expressed in % ([2]; 1.0 mM): 138%
- Activation of GAD by glutamate analogs expressed in % ([2]; 1.0 mM): 138%
- Activation of GAD by GABA analogs expressed in % ([2]; 2.5 mM): 207%
- Activation of GAD by glutamate analogs expressed in % ([2]; 2.5 mM): 207%
